2 compounds from patent US20120065203A1, “Methods of Reducing Serum Glucose and Triglyceride Levels and for Inhibiting Angiogenesis Using Substituted Indolealkanoic Acids” (The Institute for Pharmaceutical Discovery, LLC, priority 1998, published 2012) can be followed below.

Like-named read-outs stand apart in the source and are kept apart here.

For assay [1], the system named is STZ treated diabetic minipigs. Kind of assay: Wound healing in STZ treated diabetic minipigs. It counts as in vivo, minipig. Conditions: STZ diabetic minipigs with wounds, compared with untreated controls. An excerpt:
These animals are compared with control STZ diabetic minipigs also having wounds but that are not treated with the compound.

A further assay relates to diabetic (db/db) mice. Conditions: for mean percent change in glucose (lowering): after four weeks. The method, then:
The mice are obese, extremely hyperglycemic and also hyperinsulinemic.
Male db/db mice (8 weeks old) were obtained from Jackson Laboratories and were allowed to acclimate for 1 week before the experiment commenced. A sample of blood was collected from the tail after which plasma glucose was isolated by centrifigation and the glucose concentration was measured in the plasma enzymatically on the COBAS automated clinical_analyzer equipped with a glucose kit that utilized hexokinas to quantitate the amount of glucose in a sample (Roche Diagnostic Systems, kit #47382). Mice with the lowest plasma glucose values were removed from the study and the remaining mice were randomized according to their individual plasma glucose values into 3 treatment groups (n=12 per group), control untreated db/db mice, 100 mg/kg/d compound treated db/db mice and 300_mg/kg/d compound treated db/db mice.
Treatment with the compound was carried out for 4 weeks during which time blood glucose levels were measured weekly from the tail using the One Touch II blood glucose meter (Lifescan, Inc). The blood glucose values of mice in the compound treated groups was compared to the blood glucose values of mice from the control untreated group by an analysis of variance followed by Dunett's Comparison Test (one-tailed).

Assay [2] relates to streptozotocin-induced diabetic rats. Particulars: STZ diabetic rats, 10 mg/kg daily by gavage, listed as test compound. The method, then: Diabetes is induced in animals as follows: male Sprague-Dawley rats (150 g), supplied by Harlan Teklad (Madison, Wis.), are allowed to acclimate for 1 week and water is supplied ad libitum. […] STZ, 40 mg/kg, is prepared in 0.03 M citrate buffer, pH 4.5 and administered intraperitoneally after a 24-hr fast. Control animals receive citrate buffer.
Two hours after STZ injection, food is returned. Two days following STZ injection, blood glucose is measured and animals with <300 mg/dL are eliminated. Animals with blood glucose levels ≧300 mg/dL are randomized into diabetic control and treated groups.
In all, three groups of animals are monitored and compared. The groups comprise a (nondiabetic) control group (n=5); an untreated diabetic (control) group (n=7); and treated diabetic group (n=7). […] The nondiabetic and diabetic control groups are administered vehicle.
After the final dose (Day 8), all groups of animals are fasted for 4 hours and anesthetized with CO2, and blood is collected by cardiac puncture into EDTA tubes. The plasma is separated from the red blood cells by centrifugation. Plasma triglyceride levels are quantitated on an automated COBAS chemistry system utilizing the Roche reagent for Triglycerides (Cat #44119). This assay is a standard spectrophotometric enzyme assay that uses a Trinder reaction to measure the final product (Trinder, P., Ann Clin Biochem 6: […], 1969). […]

Assay [3] has as its target human aldose reductase (hALR2) (Homo sapiens, UniProt P15121). Kind of assay: Inhibition of human aldose reductase (hALR2). It counts as biochemical. The method, then: Representative compounds of the invention were tested for their potency, selectivity and efficacy as inhibitors of human aldose reductase.

Source text for rat aortic ring: Rats (less than 6 weeks old, approx 150 grams) are individually sacrificed via carbon dioxide asphyxiation. The abdomen and thorax are opened along the midline with scissors using known sterile techniques. The animals are placed recumbent on their right side, to allow displacement of the viscera. The abdominal and thoracic sections of the aorta are carefully separated from the dorsum by dissection along the longitudinal axis of the aorta. The isolated aorta is placed in a petri dish containing sterile, ice cold Hanks' balanced salt solution (Gibco BRL-Life Technologies, Rockville, Md.) for further micro-dissection under a dissecting microscope. The lumenal content of the aorta is dislodged by injection with Hanks, balanced salt solution via a syringe. Adherent adipose, loose connective tissue and segments of intercostal arteries are trimmed from the exterior of the aorta using sterile microsurgical instruments. The aorta is transferred to a clean petri dish containing fresh Hanks' balanced salt solution and the entire aorta is sectioned into 1 to 2 mm thick rings. The two end rings and any other rings which appear damaged are discarded. The aorta is maintained submerged in Hanks' balanced salt solution on ice while plating onto a 48-well plate.
Using a 48-well tissue culture plate, which is chilled on ice, in a tissue culture hood a 120 microliters of thawed Matrigel® (Becton Dickinson Labware, Bedford, Mass.) is plated onto each well using a sterile pipet tip. The Matrigel® is solidified by placing the culture plate for 30 minutes in a 37° C. humidified tissue culture incubator in the presence of 5% CO2. A single aortic ring is placed on edge, with one of its two cut surfaces resting on the Matrigel®, at the center of each well using a sterile curved forcep. The layout of the culture plate is such that the rings from multiple animals are placed in a single column on the plate. In this fashion, the experimental results represent observations based on six animals (n=6). […]

`Cc1c(Cc2nc3c(F)c(F)cc(F)c3s2)c2ccccc2n1CC(=O)O` [Example 1, 2-methyl-3-(4,5,7-trifluorobenzothiazol-2-yl)methyl-indole-N-acetic acid]: in assay [1], the “degree of wound healing” value is given as “significant increase in the degree of wound healing”. In addition, the Blood glucose with diabetic (db/db) mice (100 mg/kg/d in diet, Week 0, mean ± SD) turned out to be 323 ± 79 mg/dL; in the assay on diabetic (db/db) mice (100 mg/kg/d in diet, Week 2, mean ± SD), 284 ± 75 mg/dL; in the assay with diabetic (db/db) mice (100 mg/kg/d in diet, Week 4, mean ± SD), 303 ± 79 mg/dL; in the assay with diabetic (db/db) mice (300 mg/kg/d in diet, Week 0, mean ± SD), 313 ± 52 mg/dL; in the assay with diabetic (db/db) mice (300 mg/kg/d in diet, Week 2, mean ± SD) it was 240 ± 85 mg/dL. The “mean percent change in glucose (lowering)” value in the assay on diabetic (db/db) mice (100 mg/kg/d) amounted to 12%; in the assay with diabetic (db/db) mice (300 mg/kg/d), 40%. In assay [2], the “Triglyceride lowering compared to diabetic” value is 68%. For the same compound, the “Linear Microvascular Growth” value with rat aortic ring (Intervention (Days 4-6), compound only on days 4-6, mean ± SD) is given as 1.97 ± 0.66, n = 5 mm; with rat aortic ring (Prevention (Days 1-6), 50 micromolar, mean ± SD), 1.46 ± 0.48, n = 6 mm; with rat aortic ring (Removal: 50 micromolar days 1-3, compound removed days 4-6, mean ± SD), 2.31 ± 0.71, n = 5 mm.

The IC50 is the concentration needed to halve the response being measured. The low end stands for inhibition by little substance, the high end for a need for much substance. In assay [3], `O=C(O)Cn1cc(Cc2nc3ccc(F)cc3s2)c2ccccc21` [Example 24, 3-[6-Fluorbenzothiazole-2-yl]methyl-indole-N-acetic Acid] had a concentration for half-maximal inhibition (IC50) of 1040 nM. In other words, the single-digit micromolar range.
